From patent publication US20260232823A1, “AZA-BENZAZEPINE IMMUNOCONJUGATES, AND USES THEREOF” (BOLT BIOTHERAPEUTICS, INC., priority 2023, published 2026) come the findings set out here.

Data set [1] can be described thus: hydrolysis of the amidine group to lactam in PBS buffer. The class given is physicochemical. How it is done:
(§1) The hydrolytic degradation rates of benzazepine and 7-azabenzazepine compounds were directly compared in PBS (pH 7.4) at 37° C. to mimic in vivo effects and in formulation buffer to simulate storage and lifetime effects. […] The half-lives (t½) of aza-benzazepine compounds azaBa-6 and azaBz-8 were 30 days and 40 days, respectively. […] The amount of lactam is normalized for each sample at the start (to) for easier rate comparisons. The 7-aza modification is stabilizing in PBS and formulation buffer by about 5-fold relative to the corresponding benzazepine compounds.

A short description of data set [2]: degradation of amidine to lactam in human plasma. It is filed as in vitro ADME. To be noted: human plasma at room temperature after 24 hours. The protocol: Amidine benzazepine comparator compound CBz-3 (Table 1b) degrades in PBS buffer (pH 7.4) at 40° C. to produce lactam benzazepine comparator compound CBz-5 (Table 1b) at 90% at 17 days. […] In human plasma at room temperature after 24 hours, 15% of CBz-3 degrades to CBz-5.

Data set [3] concerns human TLR7 or human TLR8. Description: HEK Reporter Assay (TLR 7/8, receptor not separated). It is filed as cell-based. The settings on record: lactam comparator compounds. The text has this:
It was discovered that the amidine functional group of benzazepine adjuvant compounds, moieties conjugated to antibodies as immunoconjugates (WO 2020/252294; WO 2021/067242; WO 2022/125884; WO 2022/125891; WO 2022/125904; WO 2022/125908; WO 2022/125915), undergoes hydrolysis to the lactam functional group.
(§2) HEK293 reporter cells expressing human TLR7 or human TLR8 were purchased from Invivogen and vendor protocols were followed for cellular propagation and experimentation. Briefly, cells were grown to 80-85% confluence at 5% CO2 in DMEM supplemented with 10% FBS, Zeocin, and Blasticidin. Cells were then seeded in 96-well flat plates at 4×10^4 cells/well with substrate containing HEK detection medium and immunostimulatory molecules. Activity was measured using a plate reader at 620-655 nm wavelength.

The target in data set [4] is T1, human TLR7 (Homo sapiens, UniProt Q9NYK1).
T1 construct: host or cells: HEK293 NFKB reporter cells
T1 sequence (Q9NYK1 27-1049): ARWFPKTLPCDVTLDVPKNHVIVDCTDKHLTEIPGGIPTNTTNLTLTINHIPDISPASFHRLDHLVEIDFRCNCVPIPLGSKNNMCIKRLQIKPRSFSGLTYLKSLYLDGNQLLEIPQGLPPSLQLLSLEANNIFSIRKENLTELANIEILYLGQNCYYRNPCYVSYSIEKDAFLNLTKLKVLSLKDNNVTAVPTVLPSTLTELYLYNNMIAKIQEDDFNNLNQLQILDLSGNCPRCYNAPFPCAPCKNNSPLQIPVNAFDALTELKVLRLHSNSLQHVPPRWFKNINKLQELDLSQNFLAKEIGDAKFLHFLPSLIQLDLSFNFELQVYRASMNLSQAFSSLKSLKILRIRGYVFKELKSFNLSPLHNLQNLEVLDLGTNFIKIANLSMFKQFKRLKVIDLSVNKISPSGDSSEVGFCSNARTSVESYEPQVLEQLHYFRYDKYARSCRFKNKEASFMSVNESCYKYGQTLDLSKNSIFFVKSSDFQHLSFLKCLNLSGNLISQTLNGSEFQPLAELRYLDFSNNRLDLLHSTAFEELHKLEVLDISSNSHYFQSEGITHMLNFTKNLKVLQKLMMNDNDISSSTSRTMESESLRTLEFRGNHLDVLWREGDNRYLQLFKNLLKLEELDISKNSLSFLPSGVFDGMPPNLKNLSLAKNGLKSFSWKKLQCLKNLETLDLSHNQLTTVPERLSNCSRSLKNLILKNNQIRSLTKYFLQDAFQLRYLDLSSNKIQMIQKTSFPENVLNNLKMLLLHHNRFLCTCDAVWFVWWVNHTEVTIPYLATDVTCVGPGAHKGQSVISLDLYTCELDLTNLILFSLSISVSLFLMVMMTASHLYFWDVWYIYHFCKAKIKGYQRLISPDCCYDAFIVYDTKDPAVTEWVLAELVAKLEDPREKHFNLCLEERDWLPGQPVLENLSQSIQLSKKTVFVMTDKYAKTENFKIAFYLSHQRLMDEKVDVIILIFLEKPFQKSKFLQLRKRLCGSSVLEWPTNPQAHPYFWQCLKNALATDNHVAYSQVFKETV
Briefly: HEK Reporter Assay, HEK293 NFKB reporter cells expressing human TLR7. The class given is cell-based. How it is done:
(§3) Exemplary aza-benzazepine compounds (azaBza) of Table 1a and comparator compounds (CBz) of Table 1b were synthesized, purified, and characterized by mass spectrometry and shown to have the expected mass. Additional experimental procedures are found in the Examples. Activity against HEK293 NFKB reporter cells expressing human TLR7 or human TLR8 was measured according to Example 202.
as §2

Data set [5] addresses T2, human TLR8 (Homo sapiens, UniProt Q9NR97).
T2 construct: host or cells: HEK293 NFKB reporter cells
T2 sequence (Q9NR97 27-1041): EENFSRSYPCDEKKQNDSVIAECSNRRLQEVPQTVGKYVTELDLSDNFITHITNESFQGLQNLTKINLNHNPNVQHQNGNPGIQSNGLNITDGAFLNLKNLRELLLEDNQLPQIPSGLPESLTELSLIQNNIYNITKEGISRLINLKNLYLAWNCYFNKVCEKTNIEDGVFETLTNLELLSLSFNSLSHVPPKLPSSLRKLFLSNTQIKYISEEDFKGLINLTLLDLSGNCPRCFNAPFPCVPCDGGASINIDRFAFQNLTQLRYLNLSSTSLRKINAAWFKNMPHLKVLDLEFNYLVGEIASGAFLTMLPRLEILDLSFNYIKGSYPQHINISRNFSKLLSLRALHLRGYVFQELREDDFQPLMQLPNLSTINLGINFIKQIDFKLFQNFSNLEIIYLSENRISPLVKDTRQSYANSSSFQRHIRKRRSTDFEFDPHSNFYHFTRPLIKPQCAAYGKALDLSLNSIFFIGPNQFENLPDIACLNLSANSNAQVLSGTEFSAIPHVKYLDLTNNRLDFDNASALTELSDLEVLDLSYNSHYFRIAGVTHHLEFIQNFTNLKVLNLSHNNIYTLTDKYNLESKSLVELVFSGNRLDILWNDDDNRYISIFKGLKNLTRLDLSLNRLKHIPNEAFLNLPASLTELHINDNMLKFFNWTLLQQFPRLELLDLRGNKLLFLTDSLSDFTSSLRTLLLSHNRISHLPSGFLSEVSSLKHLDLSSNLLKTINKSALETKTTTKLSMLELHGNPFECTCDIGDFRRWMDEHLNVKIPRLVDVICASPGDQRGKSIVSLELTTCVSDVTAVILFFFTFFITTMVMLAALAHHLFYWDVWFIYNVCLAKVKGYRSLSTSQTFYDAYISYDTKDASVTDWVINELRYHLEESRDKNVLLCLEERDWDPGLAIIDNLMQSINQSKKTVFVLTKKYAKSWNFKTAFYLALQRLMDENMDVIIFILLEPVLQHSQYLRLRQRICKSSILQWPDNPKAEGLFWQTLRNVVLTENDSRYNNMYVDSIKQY
Description: HEK Reporter Assay, HEK293 NFKB reporter cells expressing human TLR8. It is filed as cell-based. To be noted: read-out: EC50 against TLR8. How it is done: as §3, §2

Data set [6] can be described thus: hydrolysis of the amidine group to lactam in formulation buffer. It is filed as physicochemical. The settings on record: formulation buffer pH 6, 22° C.; read-out: t ½ in formulation buffer (pH 6) at 22° C. (converted). How it is done: A nitrogen at the 7-position is stabilizing and slows hydrolysis in aza-benzazepine compounds with a variety of substituents at the 8-position. […] The amount of lactam is normalized for each sample at the start (to) for easier rate comparisons.
as §1

[7] abbreviates: PBS (pH 7.4) at 37° C., read-out: half-lives (t½), hydrolytic degradation (converted).
Setting [8] is: PBS pH 7.4, 37° C., read-out: t ½ in PBS (pH 7.4) at 37° C. (converted).

In the case of `CCCN(OCC)C(=O)C1=Cc2ccc(-c3cnc(CN)nc3)cc2N=C(N)C1` [CBz-2, reference compound], the half-life in data set [1] (setting [7]) was 6 days.
On to `CCCN(OCC)C(=O)C1=Cc2ccc(-c3cnc(CNC(=O)CCOCCOCCOCCOCCOCCOCCOCCOCCOCCOCCC(=O)O)cn3)cc2N=C(N)C1` [CBz-3], for which the “degraded to lactam (CBz-5)” value in data set [2] is 15%.
Take `CCCN(OCC)C(=O)C1=Cc2ccc(C(=O)NCCOC)cc2N=C(N)C1` [CBz-7, reference compound]: in data set [1] (setting [7]), the half-life was 8 days.
On to `CCCN(OCC)C(=O)C1=Cc2ccc(-c3cnc(CN)nc3)cc2NC(=O)C1` [CBz-8], for which the “activity in the HEK assay (TLR 7/8 agonist)” value in data set [3] is “inactive”.
The same measure, in the same setting: the value for `CCCN(OCCNC(=O)NC1CCC1)C(=O)C1=Cc2ccc(-c3cnc(CN)nc3)cc2NC(=O)C1` [CBz-9] was “inactive”.
For `CCCN(CCC)C(=O)C1=Cc2ccncc2N=C(N)C1` [azaBz-2], in data set [4], the “response against TLR7” value is “no response”. For the same compound, the EC50 in data set [5] is 5500 nM.
With `CCCN(OCCNC(=O)OC(C)(C)C)C(=O)C1=Cc2cnc(C(=O)O)cc2N=C(N)C1` [azaBz-3, 2-amino-4-((2-((tert-butoxycarbonyl)amino)ethoxy)(propyl)carbamoyl)-3H-pyrido[4,3-b]azepine-8-carboxylic acid], the half-life in data set [1] (setting [8]) was 20 days; in data set [6], 30 days.
Taken in the same sequence, the figures for `CCCN(OCCNC(=O)OC(C)(C)C)C(=O)C1=Cc2cnc(S(=O)(=O)O)cc2N=C(N)C1` [azaBz-5] were 70 days and 50 days.
For `CCCN(OCC)C(=O)C1=Cc2cnc(-c3cnc(CN)nc3)cc2N=C(N)C1` [azaBz-6, 2-amino-8-(2-(aminomethyl)pyrimidin-5-yl)-N-ethoxy-N-propyl-3H-pyrido[4,3-b]azepine-4-carboxamide], the half-life in data set [1] (setting [7]) and in data set [6] was 30 days throughout.
Regarding `CCCN(OCC)C(=O)C1=Cc2cnc(S(=O)(=O)NCCOC)cc2N=C(N)C1` [azaBz-7], the half-life in data set [1] (setting [8]) and in data set [6] was 100 days each time.
As for `CCCN(OCC)C(=O)C1=Cc2cnc(S(=O)(=O)N(C)CCOC)cc2N=C(N)C1` [azaBz-8], the half-life in data set [1] (setting [7]) and in data set [6] was 40 days each time.
As for `CCCN(OCCNC(=O)OC(C)(C)C)C(=O)C1=Cc2ccncc2N=C(N)C1` [azaBz-24], the EC50 in data set [4] (read-out: EC50 against TLR7) came out at 842 nM; in data set [5], 196 nM.
